# Laboratory results as given in ChEMBL document CHEMBL1201862, “PubChem BioAssay data set” (2004).
#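 Test compounds were applied to cells in 96-well plates for 48 hours at 5 doses. GI50 = concentration required for 50% inhibition of growth.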 Active and inactive are the calls of the source. Rule as the data show it: active = GI50 up to about 1.1 µM and inactive = higher.
# How the values were obtained:
# Test in all cases: NCI anticancer screen, dose series, 48 h
# COLO 205 = system: COLO 205
# A498 = system: A498
# MOLT-4 = system: MOLT-4
# TK-10 = system: TK-10
# KM-20L2 = system: KM-20L2
# LOX IMVI = system: LOX IMVI
# NCI-H460 = system: NCI-H460
# UACC-62 = system: UACC-62
# XF498 = system: XF498
# NCI-H23 = system: NCI-H23
# OVCAR-8 = system: OVCAR-8
# LXFL 529 = system: LXFL 529
# OVCAR-4 = system: OVCAR-4
# NCI-H522 = system: NCI-H522
# OVCAR-3 = system: OVCAR-3
# DMS-273 = system: DMS-273
Structure (SMILES),GI50 (COLO 205),GI50 (A498),GI50 (MOLT-4),GI50 (TK-10),GI50 (KM-20L2),GI50 (LOX IMVI),GI50 (NCI-H460),GI50 (UACC-62),GI50 (XF498),GI50 (NCI-H23),GI50 (OVCAR-8),GI50 (LXFL 529),GI50 (OVCAR-4),GI50 (NCI-H522),GI50 (OVCAR-3),GI50 (DMS-273)
CCOC(=O)[N-]c1ccc(S(=O)(=O)[O+](C)CCl)cc1.CCOC(=O)[N-]c1ccc(S(=O)(=O)[O+](C)CCl)cc1.NC(=O)N=O.NC(=O)OCCCl,> 100 µM (inactive),> 100 µM (inactive),> 100 µM (inactive),> 100 µM (inactive),> 100 µM (inactive),> 100 µM (inactive),> 100 µM (inactive),> 100 µM (inactive),> 100 µM (inactive),> 100 µM (inactive),> 100 µM (inactive),> 100 µM (inactive),–,–,–,–
O=c1c2cc([N+](=O)[O-])ccc2sc2ccsc12,> 100 µM (inactive),> 100 µM (inactive),> 100 µM (inactive),–,> 100 µM (inactive),> 100 µM (inactive),> 100 µM (inactive),> 100 µM (inactive),> 100 µM (inactive),> 100 µM (inactive),> 100 µM (inactive),69.3 µM (inactive),> 100 µM (inactive),> 100 µM (inactive),> 100 µM (inactive),–
O=NN(CCF)C(=O)NC1CC2CCC1C2 (stereo not drawn),> 100 µM (inactive),> 100 µM (inactive),> 100 µM (inactive),–,> 100 µM (inactive),84.7 µM (inactive),> 100 µM (inactive),86.9 µM (inactive),< 0.01 µM (active),> 100 µM (inactive),> 100 µM (inactive),–,> 100 µM (inactive),73.6 µM (inactive),> 100 µM (inactive),> 100 µM (inactive)
NCc1ccccc1C1CSCSC1,–,–,> 100 µM (inactive),> 100 µM (inactive),–,> 100 µM (inactive),> 100 µM (inactive),> 100 µM (inactive),> 100 µM (inactive),> 100 µM (inactive),> 100 µM (inactive),> 100 µM (inactive),> 100 µM (inactive),> 100 µM (inactive),> 100 µM (inactive),> 100 µM (inactive)
Cc1cccc(C)c1NC(=O)CCc1nnc(S)[nH]1,> 100 µM (inactive),> 100 µM (inactive),> 100 µM (inactive),> 100 µM (inactive),> 100 µM (inactive),> 100 µM (inactive),> 100 µM (inactive),> 100 µM (inactive),> 100 µM (inactive),> 100 µM (inactive),> 100 µM (inactive),> 100 µM (inactive),> 100 µM (inactive),> 100 µM (inactive),–,–
CCOC(=O)C12CCC(=O)C=C1[C@@H](C)C(=O)CC2 (stereo partly drawn),> 100 µM (inactive),–,–,> 100 µM (inactive),> 100 µM (inactive),> 100 µM (inactive),> 100 µM (inactive),> 100 µM (inactive),> 100 µM (inactive),> 100 µM (inactive),> 100 µM (inactive),> 100 µM (inactive),–,–,> 100 µM (inactive),> 100 µM (inactive)
Cc1ccc(NC(=O)C2C(=O)N(c3ccc(C)c(C)c3)C(=O)/C2=N\NC(N)=O)cc1C (stereo not drawn),> 100 µM (inactive),> 100 µM (inactive),88.9 µM (inactive),> 100 µM (inactive),> 100 µM (inactive),> 100 µM (inactive),> 100 µM (inactive),94.6 µM (inactive),> 100 µM (inactive),42.8 µM (inactive),62.2 µM (inactive),59.7 µM (inactive),> 100 µM (inactive),55.1 µM (inactive),38.4 µM (inactive),–
COC(=O)C(C/C=C(\C)c1ccccc1)C(C)=O (stereo not drawn),> 81.8 µM (inactive),> 100 µM (inactive),16.4 µM (inactive),–,> 100 µM (inactive),68.2 µM (inactive),85.3 µM (inactive),> 63.4 µM (inactive),> 80.9 µM (inactive),90.6 µM (inactive),> 100 µM (inactive),–,56 µM (inactive),76.7 µM (inactive),50.6 µM (inactive),> 83.9 µM (inactive)
